In patent EP1923473B1, “Bis-diglycolamides (BISDGA) as new extractants for lanthanides [Ln(III)] and actinides [An(III)] from aqueous high-level wastes” (Universidad Autónoma de Madrid, priority 2006, dated 2008):

Test: Batch extraction from simulated HLLW from the PUREX process
Type: physicochemical
Details: 0.1 mol/L in TPH/1-octanol (90:10)
Source text: The feed solution used for the extraction tests is a simulated solution of an HLLW from the PUREX process, the composition of which is shown in Table 4. Table 4: Composition of the simulated HLLW-PUREX solution used for the extraction tests
The composition of the HLLW corresponds to a burn-up of 33 GWd/tHM, the generated volume of HLLW being 5000 1/t of fuel. The feed was spiked with ^241Am, ^244Cm, ^252Cf and ^152Eu. Oxalic acid and N-(2-hydroxyethyl)ethylenediaminotriacetate (HEDTA) were also added before the extraction tests.
500 µL of the aqueous and organic phases were spiked with 10 µL of a tracer solution containing 241Am, 244Cm, 252Cf and ^152Eu, and were equilibrated for 10 minutes while they were stirred vigorously in a vortex stirrer. After the separation of the phases by centrifugation, 200 µL aliquots of each phase were taken for the determination of the concentration of ^241Am and ^152Eu using a high-purity germanium spectrometer system (EG&G Ortec). The nuclides ^241Am, ^244Cm and ^252Cf were measured by alpha spectrometry with an α-Analyst device of the company Canberra-Packard GmbH, Germany.
The concentrations of the stable elements were determined by mass spectrometry with an inductively coupled plasma source (ICP-MS) in a DRC Elan 6100 device of Perkin Elmer Sciex. The aqueous phase was measured directly after the appropriate dilution. The organic phase was analyzed after having mineralized the organic matter by microwave acid digestion and subsequent dilution.
The distribution coefficients were calculated for each element according to section C).
A 0.1 mol/L solution of compound 4 in the "TPH/1-octanol (90:10)%vol" mixture was prepared. Extraction experiments were carried out with said simulated HLLW in a pure form and also adding oxalic acid and HEDTA to it. These complexing agents have shown to be effective in the DIAMEX process for the complexing of Mo, Zr (H2C2O4) and Pd (HEDTA).
Extraction experiments were carried out with said simulated HLLW in a pure form and also adding oxalic acid and HEDTA to it.

[1] = Oxalic acid 0.2 mol/L, HEDTA 0.05 mol/L, TBP 0.5 mol/L
[2] = Oxalic acid 0.2 mol/L, HEDTA 0.05 mol/L, TBP No
[3] = Oxalic acid 0.3 mol/L, HEDTA 0.05 mol/L, TBP 0.5 mol/L
[4] = Oxalic acid 0.3 mol/L, HEDTA 0.05 mol/L, TBP No
[5] = Oxalic acid No, HEDTA No, TBP 0.5 mol/L
[6] = Oxalic acid No, HEDTA No, TBP No

With “2-Dioctylcarbamoylmethoxy-N-[3-[3-(2-dioctylcarbamoyl-methoxyacetylamino)propoxy]propyl]acetamide [Compound 18]” the “Distribution coefficients Ag” value [1] was 0.19, the “Distribution coefficients Ba” value [1] was 0.0008 and the “Distribution coefficients Cd” value [1] was 0.022. For the same substance, the “Distribution coefficients Ce” value [1] was 20, the “Distribution coefficients Cf-252” value [1] was 666 and the “Distribution coefficients Cm-244” value [1] was 95. For the same substance, the “Distribution coefficients Cs” value [1] was 0.0005, the “Distribution coefficients Eu” value [1] was 309 and the “Distribution coefficients Eu-152” value [1] was 282. The “Distribution coefficients Gd” value [1] was 140, the “Distribution coefficients La” value [1] was 12 and the “Distribution coefficients Mo” value [1] was 0.15. For the same substance, the “Distribution coefficients Nd” value [1] was 69, the “Distribution coefficients Pd” value [1] was 0.05 and the “Distribution coefficients Pr” value [1] was 32. The “Distribution coefficients Rb” value [1] was 0.008, the “Distribution coefficients Rh” value [1] was 0.003 and the “Distribution coefficients Ru” value [1] was 0.22. For the same substance, the “Distribution coefficients Sm” value [1] was 284, the “Distribution coefficients Y” value [1] was 631 and the “Distribution coefficients Zr” value [1] was 0.18. The “Distribution coefficients Ag” value [2] was 0.5, the “Distribution coefficients Ba” value [2] was 0.0008 and the “Distribution coefficients Cd” value [2] was 0.032. The “Distribution coefficients Ce” value [2] was 24, the “Distribution coefficients Cf-252” value [2] was 511 and the “Distribution coefficients Cm-244” value [2] was 85. For the same substance, the “Distribution coefficients Cs” value [2] was 0.0004, the “Distribution coefficients Eu” value [2] was 341 and the “Distribution coefficients Eu-152” value [2] was 523. For the same substance, the “Distribution coefficients Gd” value [2] was 197, the “Distribution coefficients La” value [2] was 12 and the “Distribution coefficients Mo” value [2] was 0.21. The “Distribution coefficients Nd” value [2] was 101, the “Distribution coefficients Pd” value [2] was 0.10 and the “Distribution coefficients Pr” value [2] was 44. For the same substance, the “Distribution coefficients Rb” value [2] was 0.008, the “Distribution coefficients Rh” value [2] was 0.004 and the “Distribution coefficients Ru” value [2] was 0.21. The “Distribution coefficients Sm” value [2] was 432, the “Distribution coefficients Y” value [2] was 618 and the “Distribution coefficients Zr” value [2] was 0.51. For the same substance, the “Distribution coefficients Ag” value [3] was 0.08, the “Distribution coefficients Ba” value [3] was 0.0008 and the “Distribution coefficients Cd” value [3] was 0.024. For the same substance, the “Distribution coefficients Ce” value [3] was 22, the “Distribution coefficients Cf-252” value [3] was 1353 and the “Distribution coefficients Cm-244” value [3] was 164. For the same substance, the “Distribution coefficients Cs” value [3] was 0.0004, the “Distribution coefficients Eu” value [3] was 335 and the “Distribution coefficients Eu-152” value [3] was 330. For the same substance, the “Distribution coefficients Gd” value [3] was 146, the “Distribution coefficients La” value [3] was 12 and the “Distribution coefficients Mo” value [3] was 0.19. The “Distribution coefficients Nd” value [3] was 78, the “Distribution coefficients Pd” value [3] was 0.02 and the “Distribution coefficients Pr” value [3] was 35. The “Distribution coefficients Rb” value [3] was 0.008, the “Distribution coefficients Rh” value [3] was 0.003 and the “Distribution coefficients Ru” value [3] was 0.23. For the same substance, the “Distribution coefficients Sm” value [3] was 363, the “Distribution coefficients Y” value [3] was 811 and the “Distribution coefficients Zr” value [3] was 0.06. The “Distribution coefficients Ag” value [4] was 0.14, the “Distribution coefficients Ba” value [4] was 0.0008 and the “Distribution coefficients Cd” value [4] was 0.034. The “Distribution coefficients Ce” value [4] was 24, the “Distribution coefficients Cf-252” value [4] was 1451 and the “Distribution coefficients Cm-244” value [4] was 163. For the same substance, the “Distribution coefficients Cs” value [4] was 0.0006, the “Distribution coefficients Eu” value [4] was 275 and the “Distribution coefficients Eu-152” value [4] was 436. The “Distribution coefficients Gd” value [4] was 196, the “Distribution coefficients La” value [4] was 12 and the “Distribution coefficients Mo” value [4] was 0.19. The “Distribution coefficients Nd” value [4] was 97, the “Distribution coefficients Pd” value [4] was 0.04 and the “Distribution coefficients Pr” value [4] was 43. The “Distribution coefficients Rb” value [4] was 0.008, the “Distribution coefficients Rh” value [4] was 0.003 and the “Distribution coefficients Ru” value [4] was 0.18. For the same substance, the “Distribution coefficients Sm” value [4] was 331, the “Distribution coefficients Y” value [4] was 455 and the “Distribution coefficients Zr” value [4] was 0.13. For the same substance, the “Distribution coefficients Ag” value [5] was 6.8, the “Distribution coefficients Ba” value [5] was 0.0008 and the “Distribution coefficients Cd” value [5] was 0.015. For the same substance, the “Distribution coefficients Ce” value [5] was 14, the “Distribution coefficients Cf-252” value [5] was 605 and the “Distribution coefficients Cm-244” value [5] was 102. For the same substance, the “Distribution coefficients Cs” value [5] was 0.0004, the “Distribution coefficients Eu” value [5] was 299 and the “Distribution coefficients Eu-152” value [5] was 393. For the same substance, the “Distribution coefficients Gd” value [5] was 126, the “Distribution coefficients La” value [5] was 8.5 and the “Distribution coefficients Mo” value [5] was 0.06. The “Distribution coefficients Nd” value [5] was 49, the “Distribution coefficients Pd” value [5] was 2.2 and the “Distribution coefficients Pr” value [5] was 24. For the same substance, the “Distribution coefficients Rb” value [5] was 0.008, the “Distribution coefficients Rh” value [5] was 0.003 and the “Distribution coefficients Ru” value [5] was 0.28. For the same substance, the “Distribution coefficients Sm” value [5] was 234, the “Distribution coefficients Y” value [5] was 1119 and the “Distribution coefficients Zr” value [5] was 16.5. The “Distribution coefficients Ag” value [6] was 5.8, the “Distribution coefficients Ba” value [6] was 0.0008 and the “Distribution coefficients Cd” value [6] was 0.021. The “Distribution coefficients Ce” value [6] was 17, the “Distribution coefficients Cf-252” value [6] was 1352 and the “Distribution coefficients Cm-244” value [6] was 165. For the same substance, the “Distribution coefficients Cs” value [6] was 0.0004, the “Distribution coefficients Eu” value [6] was 267 and the “Distribution coefficients Eu-152” value [6] was 499. The “Distribution coefficients Gd” value [6] was 160, the “Distribution coefficients La” value [6] was 10 and the “Distribution coefficients Mo” value [6] was 0.09. The “Distribution coefficients Nd” value [6] was 74, the “Distribution coefficients Pd” value [6] was 1.7 and the “Distribution coefficients Pr” value [6] was 32. The “Distribution coefficients Rb” value [6] was 0.008, the “Distribution coefficients Rh” value [6] was 0.004 and the “Distribution coefficients Ru” value [6] was 0.24. For the same substance, the “Distribution coefficients Sm” value [6] was 266, the “Distribution coefficients Y” value [6] was 574 and the “Distribution coefficients Zr” value [6] was 9.1.
